Assay results as given in US10766902B2, “Wee-1 inhibiting pyrazolopyrimidinone compounds” (ALMAC DISCOVERY LIMITED, priority 2016, dated 2020).
Read-outs that look alike come from different tables or passages of the source.

Legend:
[1] = test system: phosphorylation of Cdc2 at Tyr15; assay: ELISA for phosphorylation of Cdc2 at Tyr15 in HT-29 / HCT-116 cells; format: cell-based; settings: Homo sapiens
Method: Method 2: Determining the Effect of Compounds on the Phosphorylation of Cdc2 at Tyr15
The colorectal cancer cell lines HT-29 and HCT-116 were purchased from the ATCC and routinely maintained in McCoy's Medium (Invitrogen) supplemented with 10% Foetal Calf Serum.
The cells were trypsinised from their growing vessel and counted, 100 μL of cell suspension containing 6000 cells was pipetted into black 96 well Co-star plates and incubated overnight to allow adherence to the surface at a temperature of 37° C. and an atmosphere of 5% CO2. Test compounds were formulated in DMSO and diluted in foetal calf serum supplemented medium. Incubating medium was removed by aspiration and diluted drug supplemented medium added to each well.
The plate was returned to the incubator for an additional eight hours at 37° C. and an atmosphere of 5% CO2. Post incubation, the drug supplemented medium was aspirated from each well and the cells were washed once in ice-cold phosphate buffered saline (PBS). 100 μL of cell lysis buffer (Cell Signalling Technologies #9803) containing 20 mM Tris, 150 mM NaCl, 1 mM EDTA, 1 mM EGTA, 1% Triton-X100, 2.5 mM sodium pyrophosphate, 1 mM glycerophosphate, 1 mM Na3VO4 and 1 μg/mL leupeptin was added to each well of the 96 well plate and incubated at 4° C. for 30 min. The samples on the plate were snap frozen at −80° C. until required. Immediately before the continuation of the assay, the sample plate was thawed and centrifuged at 4° C. for 10 min and the supernatant transferred to secondary tubes or 96 well plate.
Cell supernatant was mixed in a ratio of 1:1 with sample dilutent buffer and vortexed for one minute. 100 μL of diluted sample was pipetted into pre-coated plates containing a rabbit polyclonal antibody for phospho-cdc2 (Tyr15) (Cell Signalling Technologies PathScan kit #7176). The plate was sealed and incubated overnight at 4° C.
The plate seal was removed and the well contents aspirated, followed by 3×5 min washes with 200 μL of diluted wash buffer. Between each wash the plate was tapped firmly onto blotting paper to ensure the removal of all kit solution. 100 μL of kit detection antibody was added to each well and the plate re-sealed and incubated at 37° C. for 1 h. Post incubation the plate was washed and processed in a similar manner to that previously described.
100 μL of horseradish peroxidise-linked secondary antibody was added to each test well, the plate sealed and incubated for thirty minutes at 37° C. Post incubation, the plate was washed as previously stated, followed by the addition of 100 μL of 3,3′,5,5′ tetramethylbenzidine (TMB reagent). The plate was sealed and incubated at RT for 30 min.
100 μL of stop solution was added to each well and the underside of the plate wiped with a lint-free tissue, prior to spectrophotometric determination. Absorbance from each well was read at 450 nm within 30 min of the addition of the stop solution.
The percentage of phospho-cdc2 was calculated compared to DMSO control and plotted versus the concentration of inhibitor using GraphPad Prism. Data was fitted using non-linear regression analysis and IC50 values generated.

Wee-1 kinase = Wee-1 kinase (Homo sapiens (Human), UniProt P30291); assay: Measurement of Wee-1 kinase activity (ADP-Glo luminescence); format: biochemical
Procedure, shortened: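 Activated Wee-1 preincubated 30 min at RT with compound in Tris/MgCl2 buffer with BSA and DTT, then reacted 1 h at RT with poly(Lys,Tyr 4:1) (2.0 μg/mL) and 30 μM ATP as added aliquot. ADP formed measured by ADP-Glo luminescence; IC50 by non-linear regression of % inhibition.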

RET = RET (Homo sapiens (Human), UniProt P07949); assay: SelectScreen Kinase Profiling: RET; format: biochemical; settings: tested at 300-350 nM
PAK4 = PAK4 (Homo sapiens (Human), UniProt O96013); assay: SelectScreen Kinase Profiling: PAK4; format: biochemical; settings: tested at 300-350 nM
Description: (§1) Table 4 below highlights the selectivity of a representative compound of the invention, Example 5, against a panel of 50 kinases (assessed using the Invitrogen SelectScreen® Kinase Profiling Service).

PIM1 = PIM1 (Homo sapiens (Human), UniProt P11309); assay: SelectScreen Kinase Profiling: PIM1; format: biochemical; settings: tested at 300-350 nM
Description: as §1

CHEK1 (CHK1) = CHEK1 (CHK1) (Homo sapiens (Human), UniProt O14757); assay: SelectScreen Kinase Profiling: CHEK1 (CHK1); format: biochemical; settings: tested at 300-350 nM
Description: as §1

INSR = INSR (Homo sapiens (Human), UniProt P06213); assay: SelectScreen Kinase Profiling: INSR; format: biochemical; settings: tested at 300-350 nM
Description: as §1

MAPK1 (ERK2) = MAPK1 (ERK2) (Homo sapiens (Human), UniProt P28482); assay: SelectScreen Kinase Profiling: MAPK1 (ERK2); format: biochemical; settings: tested at 300-350 nM
Description: as §1

A498 cells = assay: Cell viability (CellTiter-Glo), A498; format: cell-based; settings: Homo sapiens, A498, 144 h; cell viability after 6 days
Method: All cell lines (HT29, A427, A498, SKLU-1) were obtained from the American Type Culture Collection (ATCC), maintained in the recommended media supplemented with 10% (v/v) FBS, 1% (v/v) Penicillin/streptomycin and kept at 37° C. in a humidified atmosphere with 5% CO2. Cells were seeded in 96 wp format typically at a seeding density of 3500-5000 cells/well and treated after 24 hours with increasing concentration of compound from 0 to 100 μM in ½ log unit increments. Cell viability was assessed after 72 hours (HT29, A427) or after 6 days (SKLU-1, A498) by CellTiter-Glo® as recommended by the manufacturer's instructions (Promega). Analysis and EC50 values were derived using GraphPadPrism.

Sequence of Wee-1 kinase (P30291 whole entry): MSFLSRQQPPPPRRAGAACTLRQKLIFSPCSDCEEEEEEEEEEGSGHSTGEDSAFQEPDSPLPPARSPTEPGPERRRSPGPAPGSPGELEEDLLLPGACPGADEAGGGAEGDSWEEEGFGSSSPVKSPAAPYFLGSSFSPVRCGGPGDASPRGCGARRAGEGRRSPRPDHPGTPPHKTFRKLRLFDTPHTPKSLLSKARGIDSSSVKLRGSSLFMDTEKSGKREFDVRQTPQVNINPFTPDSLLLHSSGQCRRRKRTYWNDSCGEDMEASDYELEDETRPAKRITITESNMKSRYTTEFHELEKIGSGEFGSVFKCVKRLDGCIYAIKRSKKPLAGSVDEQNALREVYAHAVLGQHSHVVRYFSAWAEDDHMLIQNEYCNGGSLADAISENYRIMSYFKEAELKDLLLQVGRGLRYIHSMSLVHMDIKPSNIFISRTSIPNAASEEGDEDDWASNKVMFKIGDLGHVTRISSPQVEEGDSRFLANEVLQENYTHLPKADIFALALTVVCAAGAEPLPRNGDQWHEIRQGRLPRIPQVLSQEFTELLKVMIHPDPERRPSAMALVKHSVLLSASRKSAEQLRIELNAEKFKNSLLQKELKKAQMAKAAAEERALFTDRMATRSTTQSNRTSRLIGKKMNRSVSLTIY
Sequence of PAK4 (O96013 whole entry): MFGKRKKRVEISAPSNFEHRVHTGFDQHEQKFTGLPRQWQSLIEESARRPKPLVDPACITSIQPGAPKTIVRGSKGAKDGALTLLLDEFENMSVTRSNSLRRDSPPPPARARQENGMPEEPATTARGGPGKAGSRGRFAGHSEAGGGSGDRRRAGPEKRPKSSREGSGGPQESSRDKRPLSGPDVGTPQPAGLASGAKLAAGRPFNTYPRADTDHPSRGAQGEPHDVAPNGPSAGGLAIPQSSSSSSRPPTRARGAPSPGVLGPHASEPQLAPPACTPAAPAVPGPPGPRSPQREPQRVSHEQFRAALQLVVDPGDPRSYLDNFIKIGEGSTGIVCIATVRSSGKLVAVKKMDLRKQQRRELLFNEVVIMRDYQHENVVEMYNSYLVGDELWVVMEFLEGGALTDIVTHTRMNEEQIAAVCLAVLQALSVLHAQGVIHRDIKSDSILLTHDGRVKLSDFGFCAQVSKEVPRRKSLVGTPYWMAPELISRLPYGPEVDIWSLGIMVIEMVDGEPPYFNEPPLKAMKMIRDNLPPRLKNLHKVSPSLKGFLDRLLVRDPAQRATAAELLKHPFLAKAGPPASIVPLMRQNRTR
Sequence of CHEK1 (CHK1) (O14757 whole entry): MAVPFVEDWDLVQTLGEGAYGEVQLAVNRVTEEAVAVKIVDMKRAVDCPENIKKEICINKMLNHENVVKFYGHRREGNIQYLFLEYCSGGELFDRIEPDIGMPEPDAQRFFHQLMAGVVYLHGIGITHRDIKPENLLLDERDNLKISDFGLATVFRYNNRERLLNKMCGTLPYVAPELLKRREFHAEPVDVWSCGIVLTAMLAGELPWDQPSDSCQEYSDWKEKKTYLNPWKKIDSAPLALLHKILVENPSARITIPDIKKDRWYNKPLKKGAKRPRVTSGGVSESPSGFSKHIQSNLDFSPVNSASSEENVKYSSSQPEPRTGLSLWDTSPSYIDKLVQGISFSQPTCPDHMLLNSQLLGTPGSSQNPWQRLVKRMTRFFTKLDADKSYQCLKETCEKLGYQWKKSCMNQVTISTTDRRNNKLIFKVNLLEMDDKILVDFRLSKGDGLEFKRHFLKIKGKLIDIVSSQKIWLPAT
Sequence of PIM1 (P11309 whole entry): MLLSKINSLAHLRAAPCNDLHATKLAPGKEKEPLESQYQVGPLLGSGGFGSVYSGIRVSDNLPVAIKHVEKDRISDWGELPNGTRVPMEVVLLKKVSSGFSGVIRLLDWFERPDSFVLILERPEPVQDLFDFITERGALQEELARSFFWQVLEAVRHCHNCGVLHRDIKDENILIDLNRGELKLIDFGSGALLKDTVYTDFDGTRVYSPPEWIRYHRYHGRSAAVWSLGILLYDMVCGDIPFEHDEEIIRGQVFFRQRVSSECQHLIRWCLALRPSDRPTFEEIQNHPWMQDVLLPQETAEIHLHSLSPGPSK
Sequence of MAPK1 (ERK2) (P28482 whole entry): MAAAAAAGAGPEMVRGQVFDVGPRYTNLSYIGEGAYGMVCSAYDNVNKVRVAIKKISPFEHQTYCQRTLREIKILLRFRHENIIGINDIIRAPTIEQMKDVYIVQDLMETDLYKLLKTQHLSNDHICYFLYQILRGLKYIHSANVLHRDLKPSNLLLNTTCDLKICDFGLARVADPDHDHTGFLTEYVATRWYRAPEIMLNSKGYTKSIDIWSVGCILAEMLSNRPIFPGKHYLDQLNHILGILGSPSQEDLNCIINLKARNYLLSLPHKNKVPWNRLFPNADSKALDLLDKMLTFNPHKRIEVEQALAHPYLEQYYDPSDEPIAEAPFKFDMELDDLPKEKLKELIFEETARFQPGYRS
Sequence of INSR (P06213 28-1382): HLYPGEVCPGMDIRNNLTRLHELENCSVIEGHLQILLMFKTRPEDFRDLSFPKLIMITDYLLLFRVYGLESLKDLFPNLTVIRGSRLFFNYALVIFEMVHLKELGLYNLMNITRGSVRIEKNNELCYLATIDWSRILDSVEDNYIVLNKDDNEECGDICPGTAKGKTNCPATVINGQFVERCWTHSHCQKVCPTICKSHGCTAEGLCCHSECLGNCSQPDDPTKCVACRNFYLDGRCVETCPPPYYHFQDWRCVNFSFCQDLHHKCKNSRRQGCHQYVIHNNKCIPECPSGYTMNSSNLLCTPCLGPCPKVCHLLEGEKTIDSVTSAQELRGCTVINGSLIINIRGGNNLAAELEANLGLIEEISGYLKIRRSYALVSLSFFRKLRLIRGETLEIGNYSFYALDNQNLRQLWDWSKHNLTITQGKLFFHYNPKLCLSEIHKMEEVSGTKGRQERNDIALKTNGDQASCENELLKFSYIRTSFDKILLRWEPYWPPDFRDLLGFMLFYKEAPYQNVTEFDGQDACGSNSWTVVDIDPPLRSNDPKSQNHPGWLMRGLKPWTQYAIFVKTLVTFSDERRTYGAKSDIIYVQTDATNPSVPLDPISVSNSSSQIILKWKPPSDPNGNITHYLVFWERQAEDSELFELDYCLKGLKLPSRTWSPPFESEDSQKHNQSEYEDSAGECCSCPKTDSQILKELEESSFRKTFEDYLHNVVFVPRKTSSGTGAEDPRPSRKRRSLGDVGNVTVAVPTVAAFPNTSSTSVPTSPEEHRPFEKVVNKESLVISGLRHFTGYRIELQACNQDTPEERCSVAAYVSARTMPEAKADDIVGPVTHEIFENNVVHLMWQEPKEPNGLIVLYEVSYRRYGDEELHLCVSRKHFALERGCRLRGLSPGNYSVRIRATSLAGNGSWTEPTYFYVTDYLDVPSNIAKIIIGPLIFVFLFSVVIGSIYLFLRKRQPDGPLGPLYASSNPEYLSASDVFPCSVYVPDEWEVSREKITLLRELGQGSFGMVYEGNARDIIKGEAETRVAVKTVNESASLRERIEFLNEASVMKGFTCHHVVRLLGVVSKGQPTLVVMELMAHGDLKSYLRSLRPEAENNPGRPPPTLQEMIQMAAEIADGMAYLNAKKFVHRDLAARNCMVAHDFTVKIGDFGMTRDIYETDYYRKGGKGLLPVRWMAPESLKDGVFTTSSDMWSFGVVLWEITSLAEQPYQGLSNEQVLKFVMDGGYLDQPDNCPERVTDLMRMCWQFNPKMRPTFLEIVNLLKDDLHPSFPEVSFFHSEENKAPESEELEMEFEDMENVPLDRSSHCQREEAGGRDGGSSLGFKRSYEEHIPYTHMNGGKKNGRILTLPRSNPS
Sequence of RET (P07949 29-1114): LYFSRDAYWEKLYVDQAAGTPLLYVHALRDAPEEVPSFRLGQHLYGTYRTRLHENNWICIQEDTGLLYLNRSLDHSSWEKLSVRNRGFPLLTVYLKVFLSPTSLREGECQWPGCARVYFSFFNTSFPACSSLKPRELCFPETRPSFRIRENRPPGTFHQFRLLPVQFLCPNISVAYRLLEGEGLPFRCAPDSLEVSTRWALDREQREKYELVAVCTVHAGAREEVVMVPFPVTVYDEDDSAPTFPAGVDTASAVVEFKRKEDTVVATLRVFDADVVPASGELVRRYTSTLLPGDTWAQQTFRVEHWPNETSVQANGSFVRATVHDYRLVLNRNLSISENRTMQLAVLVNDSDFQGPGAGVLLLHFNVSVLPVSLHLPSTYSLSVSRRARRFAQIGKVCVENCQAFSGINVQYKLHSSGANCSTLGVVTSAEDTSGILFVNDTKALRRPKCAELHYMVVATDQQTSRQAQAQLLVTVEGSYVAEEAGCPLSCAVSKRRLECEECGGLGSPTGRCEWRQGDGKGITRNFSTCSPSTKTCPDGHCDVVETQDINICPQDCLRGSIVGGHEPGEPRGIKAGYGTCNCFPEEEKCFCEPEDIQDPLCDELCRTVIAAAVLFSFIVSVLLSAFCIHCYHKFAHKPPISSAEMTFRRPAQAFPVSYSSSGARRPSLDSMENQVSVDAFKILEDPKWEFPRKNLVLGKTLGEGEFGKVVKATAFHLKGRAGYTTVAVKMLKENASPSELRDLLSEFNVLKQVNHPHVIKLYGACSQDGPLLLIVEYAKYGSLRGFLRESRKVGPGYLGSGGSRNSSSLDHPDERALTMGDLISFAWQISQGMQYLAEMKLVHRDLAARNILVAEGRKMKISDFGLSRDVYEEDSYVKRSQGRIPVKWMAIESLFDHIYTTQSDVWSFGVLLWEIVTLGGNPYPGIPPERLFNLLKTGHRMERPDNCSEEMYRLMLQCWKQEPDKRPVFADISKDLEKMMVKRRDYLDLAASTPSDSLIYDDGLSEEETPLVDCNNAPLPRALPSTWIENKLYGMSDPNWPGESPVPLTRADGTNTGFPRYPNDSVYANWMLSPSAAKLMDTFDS

## C=CCn1c(=O)c2cnc(Nc3ccc(N4CCN(C)CC4)cc3)nc2n1-c1cccc(N=S(C)(C)=O)n1 [Example 5, 1-(6-{[Dimethyl(oxo)-λ^6-sulfanylidene]amino}pyridine-2-yl)-6-{[4-(4-methylpiperazin-1-yl)phenyl]amino}-2-(prop-2-en-1-yl)-1H,2H,3H-pyrazolo[3,4-d]pyrimidin-3-one]
[1]; 8 h, Table 2, colorectal cancer cells, eight hours incubation, read-out: ELISA p-CDC2 EC50
  EC50: 12 nM
[1]; Table 3, read-out: ELISA p-CDC2 EC50
  EC50: 12 nM
[1]; Table 5, data obtained as described in the experimental section of the current invention, read-out: ELISA/nM
  EC50: 12 nM
Wee-1 kinase; Table 5, data obtained as described in the experimental section of the current invention, read-out: Wee-1/nM
  IC50: 1.2 nM
Wee-1 kinase; Table 7, data obtained as described in the experimental section of the current invention, read-out: Wee-1/nM
  IC50: 1.2 nM
Wee-1 kinase; read-out: Wee1 IC50
  IC50: 1.2 nM
RET
  inhibition of RET: − (inhibition under 50% (tested at 300-350 nM))
PAK4
  inhibition of PAK4: − (inhibition under 50% (tested at 300-350 nM))
PIM1
  inhibition of PIM1: − (inhibition under 50% (tested at 300-350 nM))
CHEK1 (CHK1)
  inhibition of CHEK1 (CHK1): − (inhibition under 50% (tested at 300-350 nM))
INSR
  inhibition of INSR: − (inhibition under 50% (tested at 300-350 nM))
MAPK1 (ERK2)
  inhibition of MAPK1 (ERK2): − (inhibition under 50% (tested at 300-350 nM))
A498 cells
  EC50: 0.025 µM
